# Test results: article PMC6364417, “Kinase inhibitor library screening identifies synergistic drug combinations effective in sensitive and resistant melanoma cells” (Journal of Experimental & Clinical Cancer Research : CR, 2019)
# Key:
# Test in all cases: Kinase inhibitor library screening, PrestoBlue cell viability, 1 or 10 μM, 72 h
# [1] = test system: 501Mel-GP cells (Dabrafenib-resistant); conditions: 72 h
# [2] = test system: IGR37-XP cells (Vemurafenib-resistant)
# IGR37 cells (parental) = test system: IGR37 cells (parental)
# 501Mel cells (parental) = conditions: 72 h
# Procedure, shortened: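 PrestoBlue viability readout after 72 h exposure to each inhibitor at 1 or 10 μM, reported relative to untreated cells as % viability. Lines tested: sensitive parental plus derivatives resistant to Vemurafenib (XP) or Dabrafenib (GP), each run at least in duplicate.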
# [3] = test system: A375-GP cells (Dabrafenib-resistant)
# [4] = test system: 501Mel-XP cells (Vemurafenib-resistant); conditions: 72 h
# [5] = test system: A375-XP cells (Vemurafenib-resistant)
# A375 cells (parental) = test system: A375 cells (parental)
# [6] = test system: IGR37-GP cells (Dabrafenib-resistant)
# [7] = IGR37 Parental, 1μΜ, 72 h, in %
# [8] = IGR37 Parental, 10μΜ, 72 h, in %
compound,measurement,setting,value
O=C1NC(=O)/C(=C\c2ccc3nccnc3c2)S1 [AS-605240],"Cell viability in kinase inhibitor library screening, 501Mel GP, 1μΜ","[1]; 501Mel GP, 1μΜ, in %",107.4
same,"Cell viability in kinase inhibitor library screening, 501Mel GP, 10μΜ","[1]; 501Mel GP, 10μΜ, in %",73.8
same,"Cell viability in kinase inhibitor library screening, IGR37 XP, 1μΜ","[2]; IGR37 XP, 1μΜ, 72 h, in %",98.2
same,"Cell viability in kinase inhibitor library screening, IGR37 Parental, 1μΜ",IGR37 cells (parental); [7],99.2
same,"Cell viability in kinase inhibitor library screening, IGR37 Parental, 10μΜ",IGR37 cells (parental); [8],94.0
same,"Cell viability in kinase inhibitor library screening, 501Mel Parental, 1μΜ","501Mel cells (parental); 501Mel Parental, 1μΜ, in %",104.7
same,"Cell viability in kinase inhibitor library screening, 501Mel Parental, 10μΜ","501Mel cells (parental); 501Mel Parental, 10μΜ, in %",92.3
same,"Cell viability in kinase inhibitor library screening, A375 GP, 1μΜ","[3]; A375 GP, 1μΜ, 72 h",97.7
same,"Cell viability in kinase inhibitor library screening, A375 GP, 10μΜ","[3]; A375 GP, 10μΜ, 72 h",71.1
same,"Cell viability in kinase inhibitor library screening, 501Mel XP, 1μΜ","[4]; 501Mel XP, 1μΜ, in %",98.5
same,"Cell viability in kinase inhibitor library screening, 501Mel XP, 10μΜ","[4]; 501Mel XP, 10μΜ, in %",72.2
same,"Cell viability in kinase inhibitor library screening, A375 XP, 10μΜ","[5]; A375 XP, 10μΜ, 72 h",81.1
same,"Cell viability in kinase inhibitor library screening, A375 Parental, 10μΜ","A375 cells (parental); A375 Parental, 10μΜ, 72 h",76.5
same,"Cell viability in kinase inhibitor library screening, A375 Parental, 1μΜ","A375 cells (parental); A375 Parental, 1μΜ, 72 h",99.1
same,"Cell viability in kinase inhibitor library screening, IGR37 GP, 10μΜ","[6]; IGR37 GP, 10μΜ, 72 h",70.4%
same,"Cell viability in kinase inhibitor library screening, IGR37 GP, 1μΜ","[6]; IGR37 GP, 1μΜ, 72 h, in %",91.2
Cc1cnc(Nc2ccc(N3CCN(C)CC3)cc2)nc1Nc1cccc(S(=O)(=O)NC(C)(C)C)c1 [TG101209],"cell viability, 501Mel GP, 1μΜ","[1]; 501Mel GP, 1μΜ, in %",109.4
same,"cell viability, 501Mel GP, 10μΜ","[1]; 501Mel GP, 10μΜ, in %",1.7
same,"cell viability, IGR37 XP, 10μΜ","[2]; IGR37 XP, 10μΜ, 72 h",1.6%
same,"cell viability, IGR37 XP, 1μΜ","[2]; IGR37 XP, 1μΜ, 72 h, in %",82.7
same,"cell viability, IGR37 Parental, 1μΜ",IGR37 cells (parental); [7],97.5
same,"cell viability, IGR37 Parental, 10μΜ",IGR37 cells (parental); [8],6.5
same,"cell viability, 501Mel Parental, 10μΜ","501Mel cells (parental); 501Mel Parental, 10μΜ, in %",0.6
same,"cell viability, A375 GP, 1μΜ","[3]; A375 GP, 1μΜ, 72 h, in %",79.9
same,"cell viability, A375 GP, 10μΜ","[3]; A375 GP, 10μΜ, 72 h, in %",14.4
same,"cell viability, 501Mel XP, 1μΜ","[4]; 501Mel XP, 1μΜ, in %",85.2
same,"cell viability, 501Mel XP, 10μΜ","[4]; 501Mel XP, 10μΜ, in %",-0.127
same,"cell viability, A375 XP, 1μΜ","[5]; A375 XP, 1μΜ, 72 h, in %",93.3
same,"cell viability, A375 XP, 10μΜ","[5]; A375 XP, 10μΜ, 72 h, in %",13.1
same,"cell viability, A375 Parental, 1μΜ","A375 cells (parental); A375 Parental, 1μΜ, 72 h, in %",87.8
same,"cell viability, A375 Parental, 10μΜ","A375 cells (parental); A375 Parental, 10μΜ, 72 h, in %",11.9
same,"cell viability, IGR37 GP, 10μΜ","[6]; IGR37 GP, 10μΜ, 72 h",3.2%
same,"cell viability, IGR37 GP, 1μΜ","[6]; IGR37 GP, 1μΜ, 72 h, in %",98.5
CCS(=O)(=O)N1CC(CC#N)(n2cc(-c3ncnc4[nH]ccc34)cn2)C1 [Baricitinib (LY3009104)],viability at 1 µM,"[1]; Homo sapiens, read-out: cell viability, 501Mel GP, 1μΜ",104%
same,viability at 10 µM,"[1]; Homo sapiens, read-out: cell viability, 501Mel GP, 10μΜ",83.8%
same,viability at 1 µM,"[2]; Homo sapiens, IGR-37, 72 h, read-out: cell viability, IGR37 XP, 1μΜ",96.5%
same,viability at 10 µM,"[2]; Homo sapiens, IGR-37, 72 h, read-out: cell viability, IGR37 XP, 10μΜ",75.3%
same,viability at 1 µM,"IGR37 cells (parental); Homo sapiens, IGR-37, 72 h, read-out: cell viability, IGR37 Parental, 1μΜ",99.6%
same,viability at 10 µM,"IGR37 cells (parental); Homo sapiens, IGR-37, 72 h, read-out: cell viability, IGR37 Parental, 10μΜ",98.8%
same,viability at 1 µM,"501Mel cells (parental); Homo sapiens, read-out: cell viability, 501Mel Parental, 1μΜ",95%
same,viability at 10 µM,"501Mel cells (parental); Homo sapiens, read-out: cell viability, 501Mel Parental, 10μΜ",88.9%
same,viability at 1 µM,"[3]; Homo sapiens, A-375, 72 h, read-out: cell viability, A375 GP, 1μΜ",106%
same,viability at 10 µM,"[3]; Homo sapiens, A-375, 72 h, read-out: cell viability, A375 GP, 10μΜ",88.4%
same,viability at 1 µM,"[4]; Homo sapiens, read-out: cell viability, 501Mel XP, 1μΜ",98.5%
same,viability at 10 µM,"[4]; Homo sapiens, read-out: cell viability, 501Mel XP, 10μΜ",74.5%
same,viability at 1 µM,"[5]; Homo sapiens, A-375, 72 h, read-out: cell viability, A375 XP, 1μΜ",105%
same,viability at 10 µM,"[5]; Homo sapiens, A-375, 72 h, read-out: cell viability, A375 XP, 10μΜ",102%
same,viability at 1 µM,"A375 cells (parental); Homo sapiens, A-375, 72 h, read-out: cell viability, A375 Parental, 1μΜ",103%
same,viability at 10 µM,"A375 cells (parental); Homo sapiens, A-375, 72 h, read-out: cell viability, A375 Parental, 10μΜ",94.8%
same,viability at 1 µM,"[6]; Homo sapiens, IGR-37, 72 h, read-out: cell viability, IGR37 GP, 1μΜ",92%
same,viability at 10 µM,"[6]; Homo sapiens, IGR-37, 72 h, read-out: cell viability, IGR37 GP, 10μΜ",91.5%
